From patent US20260315487A1, “IKK-ALPHA INHIBITORS” (Cancer Research Technology Limited, priority 2023, published 2026)

Tested on: IKKα over IKKβ
Test: selectivity for IKKα over IKKβ from the kinase assay
Assay type: biochemical
Text: To examine the pyrrolo[2,3 -b]pyridines as an alternative scaffold, we adopted the AIPP core because it had similar dimensions to 1 SU909, with HBD/HBA motifs positioned at the scaffold extremities to interact with both the hinge region and the G-loop wall of IKKα, a rationale we had previously proposed as the basis for imparting selectivity. A preliminary set of AIPP derivatives was designed to explore its utility as an IKK-targeting scaffold, whilst incorporating additional functionality through which to introduce selectivity for the IKKα isoform (2-4 SU1087, SU1266 and SU1253; FIG. 3). This was achieved by initially adopting two different approaches: either appending a hydrophobic moiety to the pyrrolo[2,3 -b]pyridine motif as a fused form to afford the tricyclic derivatives 2 and 3 SU1266 and SU1087, or as a phenyl substituent to introduce flexibility with the central pyrrolo[2,3 -b]pyridine moiety in 4 SU1253 . […] The pyrrolo[2,3 -b]pyridine was bound to the hinge region in the classical HBA/HBD motif with the GK+3 NH and C═O backbone, whilst the aminoindazole projected towards the top of the pocket to interact with the G-loop (FIG. 4A). […] In both isoforms, the 2 -phenyl moiety was oriented out from the hinge towards the exposed solvent area.
To shift the selectivity profile towards IKKα, we selected 4 SU1253 for structural optimization based on the notion that sigma-bond rotation between the phenyl ring and the pyrrolo[2,3 -b]pyridine would inbuild the flexibility required to engage with the three dimensional array of residues nearby to exploit differences between the two isoforms. Furthermore, this would enable the inclusion of moieties that could also project into solvent and address solubility considerations. Small groups (NH2, OH, OMe, OEt and F) were initially introduced into the phenyl ring to evaluate their impact on the selectivity profile against both IKKs (5 a-g SU1354 -SU1373, Table 2 ). Our goal was to achieve a 1:50 selectivity ratio of IKKα to IKKβ, with a minimum IKKβ inhibitory Ki of 500 nM.

selectivity for IKKα over IKKβ, in words: essential selectivity profile
selectivity for IKKα over IKKβ (ratio of Ki): 209 fold
Structure (SMILES): Nc1n[nH]c2ccc(-c3ccnc4[nH]c(-c5ccnc(OCc6ccccc6)c5)cc34)cc12 [6g SU1349, 5-(2-(2-(Benzyloxy)pyridin-4-yl)-1 H-pyrrolo[2,3-b]pyridin-4-yl)-1 H-indazol-3-amine]
